Like-named read-outs stand apart in the source and are kept apart here.
Assays:
[1] = system: HT-29 (colon adenocarcinoma); experiment: MTT cell proliferation assay, HT-29; assay type: cell-based; details: Homo sapiens, read-out: IC50 HT-29
Procedure: (§1) After the supernatant was discarded, we solved the formazan crystal in 100 µL of DMSO. The absorbance was then registered at 550 nm using a plate lector. For all concentrations of any compound, cell viability was expressed as the percentage of the ratio between the mean absorbance of the treated cells and the mean absorbance of the untreated cells. Three to five experiments were performed to establish the IC50 values (i.e., concentration half inhibiting cell proliferation, we used GraphPad Prism 7 software).

[2] = system: A-549 (pulmonary adenocarcinoma); experiment: MTT cell proliferation assay, A-549; assay type: cell-based; details: Homo sapiens, read-out: IC50 A-549
Procedure: as §1

[3] = system: HEK-293 (human embryonic kidney cells); experiment: MTT cell proliferation assay, HEK-293; assay type: cell-based; details: HEK293, 48 h treatment
Procedure: (§2) The action on cell proliferation caused by our developed compounds was studied using an MTT assay using the human tumor cell lines of HT-29 (colon adenocarcinoma) and A-549 (pulmonary adenocarcinoma), as well as toward the non-tumor cell line HEK-293 (human embryonic kidney cells), Jurkat T-cells and human microvessel endothelial cells (HMEC-1).
(§3) In general, 5 × 10^3 (HT-29, A549, HMEC-1, Jurkat and HEK-293) cells per well were seeded in 96-well plates with 1:1 dilutions of the compounds in a volume of 100 μL of the cell media. The 3-(4,5-dimethylthiazol-2-yl)-2,5-diphenyltetrazolium bromide (MTT; Sigma Chemical Co.) dye exclusion assay was performed, and after 48 h (37 °C, 5% CO2 in a humid atmosphere), 10 μL of MTT (5 mg/mL in phosphate-buffered saline, PBS) was added to each well and incubated for 3 h at 37 °C. After the supernatant was discarded, we solved the formazan crystal in 100 µL of DMSO. The absorbance was then registered at 550 nm using a plate lector. For all concentrations of any compound, cell viability was expressed as the percentage of the ratio between the mean absorbance of the treated cells and the mean absorbance of the untreated cells. Three to five experiments were performed to establish the IC50 values (i.e., concentration half inhibiting cell proliferation, we used GraphPad Prism 7 software).

[4] = system: human microvessel endothelial cells (HMEC-1); experiment: MTT cell proliferation assay, HMEC-1; assay type: cell-based; details: Homo sapiens
Procedure: as §2, §3

VEGFR-2 = target: T1, VEGFR-2 (Homo sapiens, UniProt P35968); experiment: VEGFR-2 relative quantification by flow cytometry in HT-29 cells; assay type: cell-based; details: for total VEGFR-2 (%) expression: HT-29 cells, 24 h, relative to DMSO control = 100
T1 construct: assess the effect of our new ureas on these two proteins only on the HT-29 cancer cell line through the use of flow cytometry; endogenous in cells; host or cells: HT-29
Procedure: The cells were incubated for a period of time of one day with doses of each of the selected compounds at two different doses: 20 and 100 µM concentrations.
The effects of the compounds on the target in the cancer cell lines compounds were tested using 20 and 100 µM doses. For that, 10^5 cells per well were seeded on a 12-well plate for 24 h with the corresponding dose of the tested compound in a total volume of 500 μL of cell media. To determine the total PD-L1 and VEGFR-2, the cells were collected and fixed with 4% in a PBS of formaldehyde. After this, a treatment with 0.5% in PBS Triton^TM X-100 permeabilized the membranes.
To determine surface PD-L1 and VEGFR-2, the assay used was similar to the above but avoided the permeabilization step (Triton^TM X-100).

[5] = system: HT-29 cells co-cultured with THP-1; experiment: Cancer cell proliferation in co-cultures of HT-29 and THP-1; assay type: cell-based, human; details: 100 μM
Procedure: To establish the potential of the selected compounds as immunomodulator agents, we studied the effect of the selected compounds on HT-29 cell proliferation when co-cultured with human monocytic leukemia cell line THP-1. For the study, we used different proportions of cancer and immune cells. Standard protocol proportions were 1:5 cancer/immune cells. We include a test using a 2:1 proportion of HT-29 cells to THP-1 cells. The tests were performed for two periods of time: 24 and 48 h, using 100 μM doses of the selected compounds and BMS-8 as the reference compound.
To determine the action of the compounds on cancer cell proliferation in co-culture with immune cells, 10^5 or 2 × 10^5 of the HT-29 cells line were seeded in each well of 12-well plates and left at 37 °C for 24 h. Then, the cancer cells were treated with IFN-γ (10 ng/mL; human, Invitrogen®, Waltham, MA, USA) containing 5 × 10^5 or 10^5, respectively, of THP-1 cells per well and the corresponding compound at 100 μM or DMSO for the positive control. After 24 h/48 h of incubation, the supernatants were collected to establish the alive THP-1 cells using FSC and SCC flow cytometry. In addition, cancer cells were collected with trypsin, fixed with 4% in PBS paraformaldehyde and counted using flow cytometry.

CD11b = CD11b detection on membrane of co-cultured THP-1; assay type: cell-based, human; details: for % CD11b expression in membrane of THP-1: 1:5 HT-29/THP-1, 24 h, relative to non-treated co-cultured THP-1; for reduction of CD11b expression: THP-1 co-cultured with HT-29
Text: Reducing the expression of CD11b has become a promising target for immune modulation in anticancer therapies. For that reason, we decided to study the effect of our compounds on CD11b in THP-1 cells co-cultured with HT-29. We also determined the relative amount of CD80, a common surface marker for monocytes.
The results are related to non-treated THP-1 cells when they were co-cultured with HT-29.
The action of the compounds on CDs in co-cultured THP-1 immune cells with cancer cell line HT-29 was tested by treating them with the compounds for 24 h/48 h (see Section 4.2.5). Surface CD11b and CD80 was determined by collecting THP-1 with trypsin, fixing with formaldehyde and staining with FITC Mouse monoclonal Anti-Human CD80 (Sigma-Aldrich SAB4700142) and Alexa Fluor® 647 Rabbit monoclonal Anti-CD11b (Merck #MABF366, Rahway, NJ, USA).

T1 sequence (P35968 20-1356): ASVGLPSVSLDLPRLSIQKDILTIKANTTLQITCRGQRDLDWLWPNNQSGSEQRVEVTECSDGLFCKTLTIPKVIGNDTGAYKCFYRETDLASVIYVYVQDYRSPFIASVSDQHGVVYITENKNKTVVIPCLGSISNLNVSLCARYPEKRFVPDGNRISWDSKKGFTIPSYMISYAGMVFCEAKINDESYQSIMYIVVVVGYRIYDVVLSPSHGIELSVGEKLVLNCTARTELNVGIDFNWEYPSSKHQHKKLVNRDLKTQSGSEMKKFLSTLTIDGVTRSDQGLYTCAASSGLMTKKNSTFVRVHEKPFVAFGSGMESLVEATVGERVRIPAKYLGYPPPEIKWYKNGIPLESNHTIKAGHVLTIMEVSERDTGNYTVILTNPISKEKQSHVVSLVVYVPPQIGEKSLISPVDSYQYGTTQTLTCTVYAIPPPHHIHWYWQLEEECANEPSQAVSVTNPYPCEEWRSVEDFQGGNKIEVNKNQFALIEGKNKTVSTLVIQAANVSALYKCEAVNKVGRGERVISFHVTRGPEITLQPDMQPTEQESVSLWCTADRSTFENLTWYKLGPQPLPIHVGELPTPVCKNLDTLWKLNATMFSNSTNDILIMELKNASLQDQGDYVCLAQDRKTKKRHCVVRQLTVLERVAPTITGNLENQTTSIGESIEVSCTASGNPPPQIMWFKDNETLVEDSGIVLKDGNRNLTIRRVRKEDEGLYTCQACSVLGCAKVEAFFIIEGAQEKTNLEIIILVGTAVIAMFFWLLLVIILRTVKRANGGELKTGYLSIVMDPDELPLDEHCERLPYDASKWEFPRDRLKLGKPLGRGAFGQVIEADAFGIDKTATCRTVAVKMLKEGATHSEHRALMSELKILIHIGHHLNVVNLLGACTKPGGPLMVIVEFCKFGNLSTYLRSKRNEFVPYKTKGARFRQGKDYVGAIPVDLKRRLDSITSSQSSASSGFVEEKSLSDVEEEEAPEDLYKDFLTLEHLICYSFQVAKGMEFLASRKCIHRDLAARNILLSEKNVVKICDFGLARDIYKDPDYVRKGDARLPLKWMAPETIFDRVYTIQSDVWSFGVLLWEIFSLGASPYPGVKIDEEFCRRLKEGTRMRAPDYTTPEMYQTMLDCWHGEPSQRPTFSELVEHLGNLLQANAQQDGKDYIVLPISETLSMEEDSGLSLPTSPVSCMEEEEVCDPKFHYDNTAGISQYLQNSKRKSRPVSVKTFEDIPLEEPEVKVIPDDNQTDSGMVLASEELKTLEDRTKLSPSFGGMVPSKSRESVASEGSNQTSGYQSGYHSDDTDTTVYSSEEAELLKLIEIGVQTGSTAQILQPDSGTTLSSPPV

## COc1ccc(CCCc2cccc(NC(=O)Oc3ccccc3)c2)cc1 [C.1]
[1]; HT-29, 48 h
  IC50: > 100 µM
[2]; A549, 48 h
  IC50: > 100 µM
[3]
  IC50: > 100 µM
[4]; HMEC-1, 48 h treatment
  IC50: > 100 µM
VEGFR-2; 20 μM
  total VEGFR-2 (%) expression: 51 ± 10%
VEGFR-2; 100 μM
  total VEGFR-2 (%) expression: 191 ± 87%
[5]; 1:5 HT-29/THP-1, 24 h
  HT-29 cancer cell proliferation in co-culture: 48 ± 8
[5]; 1:5 HT-29/THP-1, 48 h
  HT-29 cancer cell proliferation in co-culture: 52 ± 3
[5]; 2:1 HT-29/THP-1, 24 h
  HT-29 cancer cell proliferation in co-culture: 70 ± 8
[5]; 2:1 HT-29/THP-1, 48 h
  HT-29 cancer cell proliferation in co-culture: 66 ± 8
CD11b
  % CD11b expression in membrane of THP-1: 79 ± 9%
other
  melting point: 89 to 91 °C

## COc1ccc(CCCc2cccc(NC(=O)Nc3ccc(F)cc3)c2)cc1 [C.3]
[1]; HT-29, MTT, 48 h treatment
  IC50: > 100 µM
[2]; A549, MTT, 48 h treatment
  IC50: > 100 µM
[3]
  IC50: > 100 µM
[4]; HMEC-1, 48 h, 48 h treatment
  IC50: > 100 µM
VEGFR-2; 20 μM
  total VEGFR-2 (%) expression: 38 ± 7%
VEGFR-2; 100 μM
  total VEGFR-2 (%) expression: 40 ± 7%
[5]; 1:5 HT-29/THP-1, 24 h
  HT-29 cancer cell proliferation in co-culture: 78 ± 8
[5]; 1:5 HT-29/THP-1, 48 h
  HT-29 cancer cell proliferation in co-culture: 64 ± 3
[5]; 2:1 HT-29/THP-1, 24 h
  HT-29 cancer cell proliferation in co-culture: 67 ± 9
[5]; 2:1 HT-29/THP-1, 48 h
  HT-29 cancer cell proliferation in co-culture: 57 ± 5
CD11b
  % CD11b expression in membrane of THP-1: 67 ± 22%
  reduction of CD11b expression: about 35%
other
  melting point: 181 to 183 °C

## COc1ccc(CCCc2cccc(NC(=O)Nc3ccc(OC)cc3)c2)cc1 [C.12]
[1]; HT-29, MTT, 48 h treatment
  IC50: > 100 µM
[2]; A549, MTT, 48 h treatment
  IC50: 1.2 ± 0.2 µM
[3]
  IC50: > 100 µM
[4]; HMEC-1, 48 h, 48 h treatment
  IC50: > 100 µM
VEGFR-2; HT-29, total VEGFR-2, dose not stated
  inhibition rate of VEGFR-2: around 75%
VEGFR-2; 20 μM
  total VEGFR-2 (%) expression: 30 ± 10%
VEGFR-2; 100 μM
  total VEGFR-2 (%) expression: 65 ± 45%
[5]; 1:5 HT-29/THP-1, 24 h
  HT-29 cancer cell proliferation in co-culture: 84 ± 2
[5]; 1:5 HT-29/THP-1, 48 h
  HT-29 cancer cell proliferation in co-culture: 67 ± 11
[5]; 2:1 HT-29/THP-1, 24 h
  HT-29 cancer cell proliferation in co-culture: 93 ± 8
[5]; 2:1 HT-29/THP-1, 48 h
  HT-29 cancer cell proliferation in co-culture: 89 ± 10
CD11b
  % CD11b expression in membrane of THP-1: 73 ± 4%
other
  melting point: 181 to 183 °C

## COc1ccc(CCCc2cccc(NC(=O)Nc3ccccc3OC)c2)cc1 [C.14]
[1]; HT-29, MTT, 48 h treatment
  IC50: > 100 µM
[2]; A549, MTT, 48 h treatment
  IC50: > 100 µM
[3]
  IC50: > 100 µM
[4]; HMEC-1, 48 h, 48 h treatment
  IC50: > 100 µM
VEGFR-2; 20 μM
  total VEGFR-2 (%) expression: 228 ± 66%
VEGFR-2; 100 μM
  total VEGFR-2 (%) expression: 32 ± 9%
[5]; 1:5 HT-29/THP-1, 24 h
  HT-29 cancer cell proliferation in co-culture: 64 ± 14
[5]; 1:5 HT-29/THP-1, 48 h
  HT-29 cancer cell proliferation in co-culture: 68 ± 8
[5]; 2:1 HT-29/THP-1, 24 h
  HT-29 cancer cell proliferation in co-culture: 82 ± 7
[5]; 2:1 HT-29/THP-1, 48 h
  HT-29 cancer cell proliferation in co-culture: 58 ± 5
CD11b
  % CD11b expression in membrane of THP-1: 66 ± 3%
  reduction of CD11b expression: about 35%
other
  melting point: 82 to 85 °C

— article PMC10302582, “Unveiling the Potential of BenzylethyleneAryl–Urea Scaffolds for the Design of New Onco Immunomodulating Agents” (Pharmaceuticals, 2023)
